Reference: ChEMBL document CHEMBL1201862, “PubChem BioAssay data set” (2004)
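Growth conditions: 96-well plates. Treatment: test compound, 48 hours, 5 concentrations. Analysis: linear interpolation between bracketing concentrations; unreached endpoints set to highest concentration. Here, GI50 denotes the concentration required for 50% inhibition of growth.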 Activity calls are given as the source filed them. No stated cut-off is given here; in the data, active = GI50 up to about 1.1 µM and inactive = higher.

Key:
Assay in all cases: NCI tumour cell line growth inhibition, 48 h
HCT-116 = system: HCT-116
COLO 205 = system: COLO 205
M19-MEL = system: M19-MEL
KM12 = system: KM12
OVCAR-5 = system: OVCAR-5
OVCAR-3 = system: OVCAR-3
UO-31 = system: UO-31
IGROV-1 = system: IGROV-1
NCI-H23 = system: NCI-H23
SK-MEL-2 = system: SK-MEL-2
NCI-H460 = system: NCI-H460
U-251 = system: U-251
MOLT-4 = system: MOLT-4
SK-MEL-5 = system: SK-MEL-5
SF-268 = system: SF-268
SNB-78 = system: SNB-78
RXF 393 = system: RXF 393
MDA-MB-231 = system: MDA-MB-231
NCI/ADR-RES = system: NCI/ADR-RES
DU-145 = system: DU-145

Measured: GI50

CCOC(=O)CNC(=O)c1nc[nH]c1/N=N/N(C)C
inactive: HCT-116 > 100 µM | COLO 205 > 100 µM | M19-MEL > 100 µM | KM12 > 100 µM | OVCAR-5 > 100 µM | OVCAR-3 > 100 µM | UO-31 > 100 µM | IGROV-1 > 100 µM | NCI-H23 > 100 µM | SK-MEL-2 > 100 µM | NCI-H460 > 100 µM | U-251 > 100 µM | MOLT-4 > 100 µM | SK-MEL-5 > 100 µM | SF-268 > 100 µM

COc1nc2c(nc(N)n2C2OC(CO)C(O)C(O)C2O)c(=O)[nH]1 (stereo not drawn)
inactive: HCT-116 > 100 µM | COLO 205 > 100 µM | SNB-78 > 100 µM | RXF 393 > 100 µM | M19-MEL > 100 µM | KM12 > 100 µM | OVCAR-3 > 100 µM | UO-31 > 100 µM | IGROV-1 > 100 µM | NCI-H23 > 100 µM | NCI-H460 > 100 µM | U-251 > 100 µM | SK-MEL-5 > 100 µM | SF-268 > 100 µM

N=C(N)NS(=O)(=O)c1ccc(NC(=O)c2cccn3c(=O)c4ccccc4nc23)cc1
inactive: HCT-116 40.8 µM | COLO 205 18.2 µM | SNB-78 > 100 µM | RXF 393 62.8 µM | M19-MEL 31.4 µM | KM12 15.9 µM | OVCAR-3 > 100 µM | UO-31 55.1 µM | IGROV-1 56 µM | NCI-H23 38 µM | NCI-H460 53.1 µM | U-251 > 100 µM | MOLT-4 25.5 µM | SK-MEL-5 27 µM | SF-268 > 100 µM

COc1ccc(OC)c2c(C(=O)O)c(Cc3ccccc3)ccc12
inactive: HCT-116 > 100 µM | COLO 205 > 100 µM | RXF 393 > 100 µM | M19-MEL > 100 µM | KM12 > 100 µM | OVCAR-5 > 100 µM | OVCAR-3 > 100 µM | UO-31 > 100 µM | IGROV-1 > 100 µM | NCI-H23 > 100 µM | SK-MEL-2 > 100 µM | NCI-H460 > 100 µM | U-251 > 100 µM | MOLT-4 > 100 µM | SK-MEL-5 > 100 µM | SF-268 > 100 µM

CCCCCCCCCCCCOC(=S)NC
inactive: HCT-116 16.9 µM | SNB-78 27.8 µM | RXF 393 16.6 µM | KM12 14.3 µM | OVCAR-5 12.6 µM | UO-31 19 µM | IGROV-1 18 µM | NCI-H23 20.4 µM | SK-MEL-2 14.6 µM | NCI-H460 18.5 µM | U-251 18.3 µM | MOLT-4 13.1 µM | SF-268 20.2 µM

CCOC(=O)C1=CN/C(=C(/C)C(=O)OC)SC1C(=O)OCC (stereo not drawn)
inactive: MDA-MB-231 > 100 µM | HCT-116 > 100 µM | COLO 205 > 100 µM | RXF 393 > 100 µM | KM12 > 100 µM | OVCAR-5 > 100 µM | OVCAR-3 > 100 µM | UO-31 > 78.5 µM | NCI/ADR-RES > 84.3 µM | IGROV-1 > 100 µM | NCI-H23 > 100 µM | SK-MEL-2 > 100 µM | NCI-H460 > 90.4 µM | U-251 > 100 µM | MOLT-4 25.6 µM | SK-MEL-5 58.3 µM | SF-268 > 100 µM | DU-145 > 100 µM

O=c1cc(-c2ccccc2)[nH]c2c(Cl)cccc12
inactive: HCT-116 7.24 µM | COLO 205 29.7 µM | RXF 393 15.7 µM | M19-MEL 9.18 µM | OVCAR-3 24.5 µM | UO-31 34.2 µM | IGROV-1 4.86 µM | NCI-H23 63.2 µM | SK-MEL-2 6.97 µM | NCI-H460 8.2 µM | U-251 87.5 µM | MOLT-4 8.34 µM | SK-MEL-5 5.86 µM | SF-268 38.4 µM

CN(C)c1ccc(/C=C2\N=C(c3ccc(N)cc3)OC2=O)cc1
inactive: COLO 205 > 100 µM | SNB-78 > 100 µM | M19-MEL > 100 µM | KM12 > 100 µM | OVCAR-5 > 100 µM | OVCAR-3 > 100 µM | UO-31 > 100 µM | IGROV-1 > 100 µM | NCI-H23 > 100 µM | SK-MEL-2 > 100 µM | NCI-H460 > 100 µM | U-251 > 100 µM | MOLT-4 > 100 µM | SK-MEL-5 > 100 µM | SF-268 > 100 µM

CC1CC2(S(=O)(=O)c3ccccc3)ON1CC2S(=O)(=O)c1ccccc1 (stereo not drawn)
inactive: HCT-116 > 100 µM | COLO 205 > 100 µM | RXF 393 > 100 µM | M19-MEL > 100 µM | KM12 > 100 µM | OVCAR-5 > 100 µM | OVCAR-3 > 100 µM | UO-31 > 100 µM | IGROV-1 > 100 µM | NCI-H23 > 100 µM | SK-MEL-2 > 100 µM | NCI-H460 > 100 µM | U-251 > 100 µM | MOLT-4 > 100 µM | SF-268 > 100 µM

N#CC(C(=O)CCC(=O)Nc1ccc(Cl)cc1)c1ccccc1Cl (stereo not drawn)
inactive: HCT-116 61.1 µM | COLO 205 > 100 µM | SNB-78 > 100 µM | M19-MEL > 100 µM | KM12 43.1 µM | OVCAR-5 50.5 µM | OVCAR-3 > 100 µM | UO-31 > 100 µM | IGROV-1 > 100 µM | NCI-H23 93.1 µM | SK-MEL-2 51.6 µM | NCI-H460 > 100 µM | U-251 > 100 µM | MOLT-4 > 100 µM | SK-MEL-5 > 100 µM | SF-268 32.1 µM

CCCC(=O)c1c(NOC2OCC(OC(C)=O)C(OC(C)=O)C2OC(C)=O)nc(OC)n(C)c1=O (stereo not drawn)
inactive: HCT-116 > 100 µM | COLO 205 > 100 µM | RXF 393 > 100 µM | M19-MEL > 100 µM | KM12 > 100 µM | OVCAR-5 > 100 µM | OVCAR-3 > 100 µM | UO-31 > 100 µM | IGROV-1 > 100 µM | NCI-H23 > 100 µM | NCI-H460 > 100 µM | U-251 > 100 µM | MOLT-4 > 100 µM | SK-MEL-5 > 100 µM | SF-268 > 100 µM

Cc1cccc2c3ccc4c(c3n(C)c12)C(=O)C=CC4=O
inactive: HCT-116 > 100 µM | COLO 205 > 100 µM | SNB-78 > 100 µM | M19-MEL > 100 µM | KM12 > 100 µM | OVCAR-3 > 100 µM | UO-31 28.9 µM | IGROV-1 > 100 µM | NCI-H23 18.6 µM | SK-MEL-2 > 100 µM | MOLT-4 35.9 µM | SF-268 > 100 µM

O=C1CC23CCCCCCCCCCC2(C1)CC(=O)C3 (stereo not drawn)
inactive: COLO 205 18.4 µM | RXF 393 25.4 µM | M19-MEL 20.7 µM | KM12 21.3 µM | OVCAR-5 23.2 µM | OVCAR-3 17.7 µM | UO-31 20.8 µM | IGROV-1 25.7 µM | NCI-H23 32.1 µM | SK-MEL-2 19.5 µM | NCI-H460 34.7 µM | U-251 22.8 µM | MOLT-4 18.7 µM | SK-MEL-5 17.4 µM | SF-268 51.9 µM
